Molecular target: Janus kinase 2 (JAK2) (Homo sapiens, UniProt O60674)
Sequence (O60674 whole entry): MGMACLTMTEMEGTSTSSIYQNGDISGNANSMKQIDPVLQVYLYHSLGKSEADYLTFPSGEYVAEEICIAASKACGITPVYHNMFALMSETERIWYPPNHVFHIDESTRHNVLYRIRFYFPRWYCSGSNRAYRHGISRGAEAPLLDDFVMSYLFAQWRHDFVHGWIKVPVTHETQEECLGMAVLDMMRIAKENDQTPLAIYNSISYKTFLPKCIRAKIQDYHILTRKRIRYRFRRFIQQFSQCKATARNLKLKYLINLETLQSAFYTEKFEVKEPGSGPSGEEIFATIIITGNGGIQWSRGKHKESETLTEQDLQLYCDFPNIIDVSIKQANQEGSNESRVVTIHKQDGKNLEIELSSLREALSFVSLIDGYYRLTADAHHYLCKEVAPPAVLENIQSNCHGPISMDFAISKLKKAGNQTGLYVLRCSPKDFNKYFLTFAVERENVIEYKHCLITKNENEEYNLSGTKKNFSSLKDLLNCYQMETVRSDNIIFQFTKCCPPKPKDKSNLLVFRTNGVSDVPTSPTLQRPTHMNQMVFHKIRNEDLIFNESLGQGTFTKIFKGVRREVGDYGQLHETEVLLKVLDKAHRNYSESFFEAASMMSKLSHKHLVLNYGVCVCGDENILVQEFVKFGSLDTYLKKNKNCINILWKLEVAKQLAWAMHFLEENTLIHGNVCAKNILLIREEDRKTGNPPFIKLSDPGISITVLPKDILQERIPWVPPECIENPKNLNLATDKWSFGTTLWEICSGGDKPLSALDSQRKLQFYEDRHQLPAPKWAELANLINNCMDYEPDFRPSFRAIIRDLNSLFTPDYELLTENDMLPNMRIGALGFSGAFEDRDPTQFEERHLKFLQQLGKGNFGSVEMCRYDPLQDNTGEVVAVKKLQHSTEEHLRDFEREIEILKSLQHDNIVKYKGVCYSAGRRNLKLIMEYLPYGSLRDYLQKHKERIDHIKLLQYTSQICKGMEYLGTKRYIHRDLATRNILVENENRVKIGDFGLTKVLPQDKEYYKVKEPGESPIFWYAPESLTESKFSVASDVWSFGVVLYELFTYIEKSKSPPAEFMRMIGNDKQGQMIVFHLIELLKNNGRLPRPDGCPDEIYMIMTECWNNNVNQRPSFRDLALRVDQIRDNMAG

- IC50: 1.8 ± 0.6 nM
SMILES: CN1CCN(c2cccc(Nc3nc4c(-c5ccc(S(C)(=O)=O)cc5)cccn4n3)c2)CC1 [CEP-33779]

From publication PMC3132063 (2011)
